{"source": "ChEMBL document CHEMBL4251615", "about": "“Discovery of anilino-furo[2,3-d]pyrimidine derivatives as dual inhibitors of EGFR/HER2 tyrosine kinase and their anticancer activity” (Eur J Med Chem, 2018)"}
{"system": "NCI-H522", "test": "Growth inhibition of human NCI-H522 cells assessed as cell growth at 10 uM incubated for 48 hrs by sulforhodamine B assay relative to control", "format": "functional", "details": "NCI-H522, 48 h, read-out: Activity", "units": {"growth at 10 µM": "%"}}
{"smiles": "Cc1oc2ncnc(Nc3cccc(F)c3)c2c1C(=O)O", "growth at 10 µM": 93.9}
{"system": "SK-MEL-2", "test": "Growth inhibition of human SK-MEL-2 cells assessed as cell growth at 10 uM incubated for 48 hrs by sulforhodamine B assay relative to control", "format": "functional", "details": "SK-MEL-2, 48 h, read-out: Activity", "units": {"growth at 10 µM": "%"}}
{"smiles": "Cc1oc2ncnc(Nc3cccc(F)c3)c2c1C(=O)O", "growth at 10 µM": 107}
{"system": "PC-3", "test": "Growth inhibition of human PC3 cells assessed as cell growth at 10 uM incubated for 48 hrs by sulforhodamine B assay relative to control", "format": "functional", "details": "PC-3, 48 h, read-out: Activity", "units": {"growth at 10 µM": "%"}}
{"smiles": "Cc1oc2ncnc(Nc3cccc(F)c3)c2c1C(=O)O", "growth at 10 µM": 108}
{"system": "BT-549", "test": "Growth inhibition of human BT549 cells assessed as cell growth at 10 uM incubated for 48 hrs by sulforhodamine B assay relative to control", "format": "functional", "details": "BT-549, 48 h, read-out: Activity", "units": {"growth at 10 µM": "%"}}
{"smiles": "Cc1oc2ncnc(Nc3cccc(F)c3)c2c1C(=O)O", "growth at 10 µM": 93.9}
{"system": "SN12C", "test": "Growth inhibition of human SN12C cells assessed as cell growth at 10 uM incubated for 48 hrs by sulforhodamine B assay relative to control", "format": "functional", "details": "read-out: Activity", "units": {"growth at 10 µM": "%"}}
{"smiles": "Cc1oc2ncnc(Nc3cccc(F)c3)c2c1C(=O)O", "growth at 10 µM": 89.7}
{"system": "SF-268", "test": "Growth inhibition of human SF268 cells assessed as cell growth at 10 uM incubated for 48 hrs by sulforhodamine B assay relative to control", "format": "functional", "details": "SF-268, 48 h, read-out: Activity", "units": {"growth at 10 µM": "%"}}
{"smiles": "Cc1oc2ncnc(Nc3cccc(F)c3)c2c1C(=O)O", "growth at 10 µM": 96.3}
{"system": "NCI-H23", "test": "Growth inhibition of human NCI-H23 cells assessed as cell growth at 10 uM incubated for 48 hrs by sulforhodamine B assay relative to control", "format": "functional", "details": "NCI-H23, 48 h, read-out: Activity", "units": {"growth at 10 µM": "%"}}
{"smiles": "Cc1oc2ncnc(Nc3cccc(F)c3)c2c1C(=O)O", "growth at 10 µM": 97.6}
{"system": "TK-10", "test": "Growth inhibition of human TK10 cells assessed as cell growth at 10 uM incubated for 48 hrs by sulforhodamine B assay relative to control", "format": "functional", "details": "TK-10, 48 h, read-out: Activity", "units": {"growth at 10 µM": "%"}}
{"smiles": "Cc1oc2ncnc(Nc3cccc(F)c3)c2c1C(=O)O", "growth at 10 µM": 105}
{"system": "A549", "test": "Growth inhibition of human A549/ATCC cells assessed as cell growth at 10 uM incubated for 48 hrs by sulforhodamine B assay relative to control", "format": "functional", "details": "A549, 48 h, read-out: Activity", "units": {"growth at 10 µM": "%"}}
{"smiles": "Cc1oc2ncnc(Nc3cccc(F)c3)c2c1C(=O)O", "growth at 10 µM": 101}
{"system": "OVCAR-3", "test": "Growth inhibition of human OVCAR3 cells assessed as cell growth at 10 uM incubated for 48 hrs by sulforhodamine B assay relative to control", "format": "functional", "details": "OVCAR-3, 48 h, read-out: Activity", "units": {"growth at 10 µM": "%"}}
{"smiles": "Cc1oc2ncnc(Nc3cccc(F)c3)c2c1C(=O)O", "growth at 10 µM": 102}
{"system": "HL-60(TB)", "test": "Growth inhibition of human HL-60(TB) cells assessed as cell growth at 10 uM incubated for 48 hrs by sulforhodamine B assay relative to control", "format": "functional", "details": "HL-60, 48 h, read-out: Activity", "units": {"growth at 10 µM": "%"}}
{"smiles": "Cc1oc2ncnc(Nc3cccc(F)c3)c2c1C(=O)O", "growth at 10 µM": 35.2}
{"system": "SF-295", "test": "Growth inhibition of human SF295 cells assessed as cell growth at 10 uM incubated for 48 hrs by sulforhodamine B assay relative to control", "format": "functional", "details": "SF-295, 48 h, read-out: Activity", "units": {"growth at 10 µM": "%"}}
{"smiles": "Cc1oc2ncnc(Nc3cccc(F)c3)c2c1C(=O)O", "growth at 10 µM": 98.7}
{"system": "Malme-3M", "test": "Growth inhibition of human MALME-3M cells assessed as cell growth at 10 uM incubated for 48 hrs by sulforhodamine B assay relative to control", "format": "functional", "details": "read-out: Activity", "units": {"growth at 10 µM": "%"}}
{"smiles": "Cc1oc2ncnc(Nc3cccc(F)c3)c2c1C(=O)O", "growth at 10 µM": 107}
{"system": "SNB-19", "test": "Growth inhibition of human SNB19 cells assessed as cell growth at 10 uM incubated for 48 hrs by sulforhodamine B assay relative to control", "format": "functional", "details": "SNB-19, 48 h, read-out: Activity", "units": {"growth at 10 µM": "%"}}
{"smiles": "Cc1oc2ncnc(Nc3cccc(F)c3)c2c1C(=O)O", "growth at 10 µM": 94.6}
{"system": "HCC 2998", "test": "Growth inhibition of human HCC2998 cells assessed as cell growth at 10 uM incubated for 48 hrs by sulforhodamine B assay relative to control", "format": "functional", "details": "HCC 2998, 48 h, read-out: Activity", "units": {"growth at 10 µM": "%"}}
{"smiles": "Cc1oc2ncnc(Nc3cccc(F)c3)c2c1C(=O)O", "growth at 10 µM": 102}
{"system": "OVCAR-4", "test": "Growth inhibition of human OVCAR4 cells assessed as cell growth at 10 uM incubated for 48 hrs by sulforhodamine B assay relative to control", "format": "functional", "details": "OVCAR-4, 48 h, read-out: Activity", "units": {"growth at 10 µM": "%"}}
{"smiles": "Cc1oc2ncnc(Nc3cccc(F)c3)c2c1C(=O)O", "growth at 10 µM": 101}
{"system": "RXF 393", "test": "Growth inhibition of human RXF393 cells assessed as cell growth at 10 uM incubated for 48 hrs by sulforhodamine B assay relative to control", "format": "functional", "details": "RXF 393, 48 h, read-out: Activity", "units": {"growth at 10 µM": "%"}}
{"smiles": "Cc1oc2ncnc(Nc3cccc(F)c3)c2c1C(=O)O", "growth at 10 µM": 115}
{"system": "RPMI-8226", "test": "Growth inhibition of human RPMI8226 cells assessed as cell growth at 10 uM incubated for 48 hrs by sulforhodamine B assay relative to control", "format": "functional", "details": "RPMI-8226, 48 h, read-out: Activity", "units": {"growth at 10 µM": "%"}}
{"smiles": "Cc1oc2ncnc(Nc3cccc(F)c3)c2c1C(=O)O", "growth at 10 µM": 107}
{"system": "HCT-116", "test": "Growth inhibition of human HCT116 cells assessed as cell growth at 10 uM incubated for 48 hrs by sulforhodamine B assay relative to control", "format": "functional", "details": "HCT-116, 48 h, read-out: Activity", "units": {"growth at 10 µM": "%"}}
{"smiles": "Cc1oc2ncnc(Nc3cccc(F)c3)c2c1C(=O)O", "growth at 10 µM": 103}
{"system": "HOP-92", "test": "Growth inhibition of human HOP92 cells assessed as cell growth at 10 uM incubated for 48 hrs by sulforhodamine B assay relative to control", "format": "functional", "details": "HOP-92, 48 h, read-out: Activity", "units": {"growth at 10 µM": "%"}}
{"smiles": "Cc1oc2ncnc(Nc3cccc(F)c3)c2c1C(=O)O", "growth at 10 µM": 89.3}
{"system": "MDA-MB-435", "test": "Growth inhibition of human MDA-MB-435 cells assessed as cell growth at 10 uM incubated for 48 hrs by sulforhodamine B assay relative to control", "format": "functional", "details": "MDA-MB-435, 48 h, read-out: Activity", "units": {"growth at 10 µM": "%"}}
{"smiles": "Cc1oc2ncnc(Nc3cccc(F)c3)c2c1C(=O)O", "growth at 10 µM": 104}
{"system": "MCF7", "test": "Growth inhibition of human MCF7 cells assessed as cell growth at 10 uM incubated for 48 hrs by sulforhodamine B assay relative to control", "format": "functional", "details": "MCF7, 48 h, read-out: Activity", "units": {"growth at 10 µM": "%"}}
{"smiles": "Cc1oc2ncnc(Nc3cccc(F)c3)c2c1C(=O)O", "growth at 10 µM": 97.6}
{"system": "HT-29", "test": "Growth inhibition of human HT-29 cells assessed as cell growth at 10 uM incubated for 48 hrs by sulforhodamine B assay relative to control", "format": "functional", "details": "HT-29, 48 h, read-out: Activity", "units": {"growth at 10 µM": "%"}}
{"smiles": "Cc1oc2ncnc(Nc3cccc(F)c3)c2c1C(=O)O", "growth at 10 µM": 110}
{"system": "NCI-H322M", "test": "Growth inhibition of human NCI-H322M cells assessed as cell growth at 10 uM incubated for 48 hrs by sulforhodamine B assay relative to control", "format": "functional", "details": "read-out: Activity", "units": {"growth at 10 µM": "%"}}
{"smiles": "Cc1oc2ncnc(Nc3cccc(F)c3)c2c1C(=O)O", "growth at 10 µM": 109}
{"system": "ACHN", "test": "Growth inhibition of human ACHN cells assessed as cell growth at 10 uM incubated for 48 hrs by sulforhodamine B assay relative to control", "format": "functional", "details": "read-out: Activity", "units": {"growth at 10 µM": "%"}}
{"smiles": "Cc1oc2ncnc(Nc3cccc(F)c3)c2c1C(=O)O", "growth at 10 µM": 100}
{"system": "EKVX", "test": "Growth inhibition of human EKVX cells assessed as cell growth at 10 uM incubated for 48 hrs by sulforhodamine B assay relative to control", "format": "functional", "details": "read-out: Activity", "units": {"growth at 10 µM": "%"}}
{"smiles": "Cc1oc2ncnc(Nc3cccc(F)c3)c2c1C(=O)O", "growth at 10 µM": 101}
{"system": "U-251", "test": "Growth inhibition of human U251 cells assessed as cell growth at 10 uM incubated for 48 hrs by sulforhodamine B assay relative to control", "format": "functional", "details": "U-251, 48 h, read-out: Activity", "units": {"growth at 10 µM": "%"}}
{"smiles": "Cc1oc2ncnc(Nc3cccc(F)c3)c2c1C(=O)O", "growth at 10 µM": 106}
{"system": "786-0", "test": "Growth inhibition of human 786-0 cells assessed as cell growth at 10 uM incubated for 48 hrs by sulforhodamine B assay relative to control", "format": "functional", "details": "786-0, 48 h, read-out: Activity", "units": {"growth at 10 µM": "%"}}
{"smiles": "Cc1oc2ncnc(Nc3cccc(F)c3)c2c1C(=O)O", "growth at 10 µM": 92}
{"system": "MDA-MB-231", "test": "Growth inhibition of human MDA-MB-231 cells assessed as cell growth at 10 uM incubated for 48 hrs by sulforhodamine B assay relative to control", "format": "functional", "details": "MDA-MB-231, 48 h, read-out: Activity", "units": {"growth at 10 µM": "%"}}
{"smiles": "Cc1oc2ncnc(Nc3cccc(F)c3)c2c1C(=O)O", "growth at 10 µM": 85}
{"system": "MDA-MB-468", "test": "Growth inhibition of human MDA-MB-468 cells assessed as cell growth at 10 uM incubated for 48 hrs by sulforhodamine B assay relative to control", "format": "functional", "details": "MDA-MB-468, 48 h, read-out: Activity", "units": {"growth at 10 µM": "%"}}
{"smiles": "Cc1oc2ncnc(Nc3cccc(F)c3)c2c1C(=O)O", "growth at 10 µM": 104}
{"system": "MOLT-4", "test": "Growth inhibition of human MOLT4 cells assessed as cell growth at 10 uM incubated for 48 hrs by sulforhodamine B assay relative to control", "format": "functional", "details": "MOLT-4, 48 h, read-out: Activity", "units": {"growth at 10 µM": "%"}}
{"smiles": "Cc1oc2ncnc(Nc3cccc(F)c3)c2c1C(=O)O", "growth at 10 µM": 102}
{"system": "SW-620", "test": "Growth inhibition of human SW620 cells assessed as cell growth at 10 uM incubated for 48 hrs by sulforhodamine B assay relative to control", "format": "functional", "details": "SW-620, 48 h, read-out: Activity", "units": {"growth at 10 µM": "%"}}
{"smiles": "Cc1oc2ncnc(Nc3cccc(F)c3)c2c1C(=O)O", "growth at 10 µM": 101}
{"system": "Hs-578T", "test": "Growth inhibition of human Hs 578T cells assessed as cell growth at 10 uM incubated for 48 hrs by sulforhodamine B assay relative to control", "format": "functional", "details": "read-out: Activity", "units": {"growth at 10 µM": "%"}}
{"smiles": "Cc1oc2ncnc(Nc3cccc(F)c3)c2c1C(=O)O", "growth at 10 µM": 99.9}
